From ChEMBL document CHEMBL4270583, “Synthesis and biological evaluation of dihydroquinoline carboxamide derivatives as anti-tubercular agents” (Eur J Med Chem, 2018)
≈ marks a conversion by molar mass, not a printed value.

How the values were obtained:
[1] = tested on: Mycobacterium tuberculosis; test: Antitubercular activity against Mycobacterium tuberculosis H37Rv after 1 week by microplate alamar blue assay; type: functional; settings: 168 h
[2] = Cytotoxicity against mouse RAW264.7 cells assessed as growth inhibition after 48 hrs by MTT assay; type: cell-based
[3] = Cytotoxicity against mouse RAW264.7 cells assessed as growth inhibition at 25 ug/ml after 48 hrs by MTT assay relative to control; type: cell-based; settings: read-out: GI

Row | SMILES | MIC [1] [µg/mL] | GI50 at 48 h [2] [µg/mL] | inhibition at 48 h, 25 ug/ml [3] [%]
1 | O=C(NCCN1CCCCC1)c1c(-c2ccccc2)c2cc(Cl)ccc2[nH]c1=O | 25 (≈ 61 µM) | – | –
2 | O=C(Nc1ccc(F)cc1)c1c(-c2ccccc2)c2ccccc2[nH]c1=O | 25 (≈ 69.8 µM) | – | –
3 | CS(=O)(=O)c1ccc(NC(=O)c2c(-c3ccccc3)c3ccccc3n(Cc3cccc(Cl)c3)c2=O)cc1 | 12.5 (≈ 23 µM) | – | –
4 | Cc1ccc(NC(=O)c2c(-c3ccccc3)c3cc(Cl)ccc3n(Cc3cc(F)cc(F)c3)c2=O)c(C)c1 | 12.5 (≈ 23.6 µM) | – | –
5 | COC(=O)C(Cc1c[nH]c2ccccc12)NC(=O)c1c(-c2ccccc2)c2cc(Cl)ccc2[nH]c1=O (stereo not given) | 6.25 (≈ 12.5 µM) | 104 (≈ 209 µM) | 21.5
6 | O=C(Nc1ccccc1F)c1c(-c2ccccc2)c2cc(Cl)ccc2n(Cc2ccc(F)cc2)c1=O | > 25 | – | –
7 | Cc1cccc(Cn2c(=O)c(C(=O)Nc3ccc(Br)cc3)c(-c3ccccc3)c3cc(Cl)ccc32)c1 | > 25 | – | –
8 | O=C(Nc1ccc(N2CCOCC2)cc1)c1c(-c2ccccc2)c2cc(Cl)ccc2[nH]c1=O | 6.25 (≈ 13.6 µM) | 96.4 (≈ 210 µM) | 18.6
9 | Cc1cccc(Cn2c(=O)c(C(=O)Nc3ccc(C(F)(F)F)cc3)c(-c3ccccc3)c3cc(Cl)ccc32)c1 | > 25 | – | –
10 | O=C(NCCN1CCOCC1)c1c(-c2ccccc2)c2cc(Cl)ccc2[nH]c1=O | 25 (≈ 60.7 µM) | – | –
11 | O=C(Nc1ccc(F)cc1)c1c(-c2ccccc2)c2ccccc2n(Cc2ccccc2)c1=O | > 25 | – | –
12 | O=C(Nc1ccc(C(F)(F)F)cc1)c1c(-c2ccccc2)c2ccccc2n(Cc2ccccc2)c1=O | 25 (≈ 50.2 µM) | – | –
13 | O=C(NCCc1ccc(O)cc1)c1c(-c2ccccc2)c2cc(Cl)ccc2[nH]c1=O | 25 (≈ 59.7 µM) | – | –
14 | CSc1ccc(NC(=O)c2c(-c3ccccc3)c3cc(Cl)ccc3n(Cc3cccc(C)c3)c2=O)cc1 | 12.5 (≈ 23.8 µM) | – | –
15 | CSc1ccc(NC(=O)c2c(-c3ccccc3)c3ccccc3n(Cc3cccc(Cl)c3)c2=O)cc1 | > 25 | – | –
16 | O=C(NC12CC3CC(CC(C3)C1)C2)c1c(-c2ccccc2)c2ccccc2[nH]c1=O | 3.12 (≈ 7.84 µM) | 87.6 (≈ 220 µM) | 16.2
17 | O=C(Nc1ccc(CO)cc1)c1c(-c2ccccc2)c2cc(Cl)ccc2[nH]c1=O | > 25 | – | –

Row | SMILES | MIC [1] [µg/mL] | GI50 at 48 h [2] [µg/mL] | inhibition at 48 h, 25 ug/ml [3] [%]
18 | Cc1cc(C)c(NC(=O)c2c(-c3ccccc3)c3cc(Cl)ccc3n(Cc3cccc(F)c3)c2=O)c(C)c1 | 0.78 (≈ 1.49 µM) | 93.5 (≈ 178 µM) | 22.4
19 | Cc1cccc(Cn2c(=O)c(C(=O)Nc3ccc(OC(F)(F)F)cc3)c(-c3ccccc3)c3cc(Cl)ccc32)c1 | > 25 | – | –
20 | O=C(Nc1ccc2c(c1)OCCO2)c1c(-c2ccccc2)c2ccccc2[nH]c1=O | 25 (≈ 62.7 µM) | – | –
21 | O=C(NCCc1c[nH]c2ccccc12)c1c(-c2ccccc2)c2ccccc2[nH]c1=O | 12.5 (≈ 30.7 µM) | – | –
22 | Cc1cccc(Cn2c(=O)c(C(=O)Nc3ccc(F)cc3)c(-c3ccccc3)c3cc(Cl)ccc32)c1 | > 25 | – | –
23 | O=C(Nc1ccc(OC(F)(F)F)cc1)c1c(-c2ccccc2)c2ccccc2n(Cc2ccccc2)c1=O | > 25 | – | –
24 | O=C(Nc1cccc(F)c1)c1c(-c2ccccc2)c2cc(Cl)ccc2n(Cc2ccc(F)cc2)c1=O | > 25 | – | –
25 | O=C(Nc1ccc(Cl)cc1)c1c(-c2ccccc2)c2cc(Cl)ccc2n(Cc2cccc(F)c2)c1=O | 0.39 (≈ 0.754 µM) | 86.8 (≈ 168 µM) | 24.7
26 | O=C(NCCc1ccccc1)c1c(-c2ccccc2)c2cc(Cl)ccc2[nH]c1=O | 25 (≈ 62.1 µM) | – | –
27 | COC(=O)C(Cc1ccc(O)cc1)NC(=O)c1c(-c2ccccc2)c2cc(Cl)ccc2[nH]c1=O (stereo not given) | 12.5 (≈ 26.2 µM) | – | –
28 | O=C(Nc1ccc(Br)cc1)c1c(-c2ccccc2)c2ccccc2n(Cc2ccccc2)c1=O | 6.25 (≈ 12.3 µM) | 113 (≈ 222 µM) | 14.6
29 | O=C(NCCCn1ccnc1)c1c(-c2ccccc2)c2cc(Cl)ccc2[nH]c1=O | 25 (≈ 61.4 µM) | – | –
30 | Cc1cccc(Cn2c(=O)c(C(=O)Nc3ccc(Cl)cc3)c(-c3ccccc3)c3cc(Cl)ccc32)c1 | 25 (≈ 48.7 µM) | – | –
31 | CC[C@@H](CO)NCCN[C@@H](CC)CO [ETHAMBUTOL] | 1.56 (≈ 7.64 µM) | – | –
32 | NNC(=O)c1ccncc1 [ISONIAZID] | 0.1 (≈ 0.729 µM) | – | –
33 | CO[C@H]1/C=C/O[C@@]2(C)Oc3c(C)c(O)c4c(O)c(c(/C=N/N5CCN(C)CC5)c(O)c4c3C2=O)NC(=O)/C(C)=C\C=C\[C@H](C)[C@H](O)[C@@H](C)[C@@H](O)[C@@H](C)[C@H](OC(C)=O)[C@@H]1C [RIFAMPIN] | 0.2 (≈ 0.243 µM) | – | –
